Test results: patent US9453062B2, “Glucose dependent insulinotropic polypeptide analogs, pharmaceutical compositions and use thereof” (Beijing Hanmi Pharmaceutical Co., Ltd., priority 2011, dated 2016)
pEC50: −log10 of the molar value. Where a SMILES comes first, the peptide text is derived from it. Bridges are numbered along the chain shown (N, C = ends). Where no end group is shown, it is not given here. [ ]: non-standard residue; d: D form. The star is where a group is joined. Palmitoyl = CCCCCCCCCCCCCCCC(=O)*; Nle = CCCC[C@H](N)C(=O)O; Aib = CC(C)(N)C(=O)O

What was measured:
[1] = target: T1, hGLP-1R (Homo sapiens, UniProt P43220); experiment: hGLP-1R-mediated cAMP induction assay in CHO cell line; format: cell-based; settings: for pEC50 / GLP-1 Receptor Relative Potency: Table 3; for pEC50: CHO hGLP1R cells; for GLP-1 Receptor Relative Potency: against native GLP-1;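 on all read-outs here: CHO cells expressing human GLP-1R, treated 30 min at 37 °C, intracellular cAMP measured by competitive fluorescent immunoassay and converted via a cAMP standard curve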
T1 construct: expressed in transfected cells; host or cells: CHO
T1 sequence (P43220 24-463): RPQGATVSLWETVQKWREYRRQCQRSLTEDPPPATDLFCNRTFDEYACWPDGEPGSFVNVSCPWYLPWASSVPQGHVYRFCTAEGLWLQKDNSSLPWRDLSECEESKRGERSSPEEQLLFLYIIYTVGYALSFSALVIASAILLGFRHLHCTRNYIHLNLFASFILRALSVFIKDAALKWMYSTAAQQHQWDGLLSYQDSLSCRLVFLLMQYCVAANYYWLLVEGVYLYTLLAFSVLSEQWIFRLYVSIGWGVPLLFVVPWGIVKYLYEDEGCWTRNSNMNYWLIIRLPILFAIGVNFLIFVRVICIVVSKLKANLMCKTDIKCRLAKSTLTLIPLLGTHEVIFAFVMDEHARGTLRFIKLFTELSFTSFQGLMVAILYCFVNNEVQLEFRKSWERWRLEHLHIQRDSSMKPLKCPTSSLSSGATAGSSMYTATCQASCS

[2] = target: T2, hGIPR (Homo sapiens, UniProt P48546); experiment: hGIPR-mediated cAMP induction assay in CHO cell line; format: cell-based; settings: Table 3; for pEC50: CHO hGIPR cells; for GIP Receptor Relative Potency: against native GIP
T2 construct: expressed in transfected cells; host or cells: CHO
T2 sequence (P48546 22-466): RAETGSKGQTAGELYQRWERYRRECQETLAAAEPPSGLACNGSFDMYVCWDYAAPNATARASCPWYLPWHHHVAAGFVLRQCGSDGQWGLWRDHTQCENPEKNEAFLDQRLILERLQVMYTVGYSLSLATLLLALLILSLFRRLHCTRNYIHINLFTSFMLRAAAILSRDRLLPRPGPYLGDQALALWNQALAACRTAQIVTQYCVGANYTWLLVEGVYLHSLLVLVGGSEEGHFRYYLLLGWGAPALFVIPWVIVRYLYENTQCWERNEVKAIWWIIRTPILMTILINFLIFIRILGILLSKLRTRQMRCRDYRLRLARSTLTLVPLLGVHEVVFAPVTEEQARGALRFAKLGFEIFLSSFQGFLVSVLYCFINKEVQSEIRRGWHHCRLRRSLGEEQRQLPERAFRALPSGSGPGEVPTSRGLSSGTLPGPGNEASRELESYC
From the text: The cAMP in the sample or standard competes with horseradish peroxidase (HRP)-labeled cAMP conjugate for binding sites on the anti-cAMP antibodies. In the absence of cAMP, most of the HRP-cAMP conjugate is bound to the antibody. Increasing concentrations of cAMP competitively decrease the amount of bound conjugate, thus decreasing measured HRP activity.
Assay kit: CatchPoint™ Cyclic-AMP Fluorescent Assay Kit (Molecular Devices, Product # R8088)
Cell lines: CHO hGLP1R, CHO hGIPR
Cell seeding: CHO hGLP1R or CHO hGIPR cells: 10,000 cells/well/100 uL at 37° C. 5% CO2 overnight.
Gently aspirate off media and wash the cells with KRBG Buffer, 100 uL/well.
Incubate the plate for 10 min at room temperature. Then add the KRBG buffer with 3× final concentration of the tested samples (5-foled series diluted from 5,000 nM), 50 uL/well. Incubate the plate at 37° C. 5% CO2 for 30 min.
Add 50 uL of Lysis buffer to each well and put the plate on a shaker for 10 min.
Place 40 uL of samples and analyze in appropriate wells. And test the cAMP concentration in each sample by following the manufacture's instruction.
Detect the fluorescence signal at Ex: 490 nm and Em: 530 nm. Transfer the FI signal to cAMP concentration by the cAMP standard curve. The Dose-response curve and EC50 were obtained by logistic fitting of Origin 8.

CC[C@H](C)[C@H](NC(=O)[C@H](Cc1ccccc1)NC(=O)[C@H](CCC(=O)O)NC(=O)[C@H](CCCNC(=N)N)NC(=O)[C@@H](NC(=O)[C@H](C)NC(=O)[C@H](CCC(=O)O)NC(=O)[C@H](CCCCN)NC(=O)[C@H](CCC(=O)O)NC(=O)[C@H](CCSC)NC(=O)[C@H](Cc1ccc(O)cc1)NC(=O)[C@@H](NC(=O)[C@H](CO)NC(=O)[C@H](Cc1ccc(O)cc1)NC(=O)[C@H](CC(=O)O)NC(=O)[C@H](CO)NC(=O)[C@@H](NC(=O)[C@H](Cc1ccccc1)NC(=O)[C@@H](NC(=O)CNC(=O)[C@H](CCC(=O)O)NC(=O)C(C)(C)NC(=O)[C@@H](N)Cc1ccc(O)cc1)[C@@H](C)O)[C@@H](C)O)[C@@H](C)CC)C(C)C)C(=O)N[C@@H](C)C(=O)N[C@@H](Cc1c[nH]c2ccccc12)C(=O)N[C@@H](CC(C)C)C(=O)N[C@H](C(=O)N[C@@H](CCCCN)C(=O)NCC(=O)NCC(=O)N1CCC[C@H]1C(=O)N[C@@H](CO)C(=O)N[C@@H](CO)C(=O)NCC(=O)N[C@@H](C)C(=O)N1CCC[C@H]1C(=O)N1CCC[C@H]1C(=O)N1CCC[C@H]1C(=O)N[C@@H](CO)C(N)=O)C(C)C [Compound 051] (H-Y[Aib]EGTFTSDYSIYMEKEAVREFIAWLVKGGPSSGAPPPS-NH2; N-terminus assumed)
pEC50 [1]: 9.22
GLP-1 Receptor Relative Potency [1]: 159.8
pEC50 [2]: 9.72
GIP Receptor Relative Potency [2]: 89.5

CC[C@H](C)[C@H](NC(=O)[C@H](Cc1ccccc1)NC(=O)[C@H](CCC(=O)O)NC(=O)[C@H](CCCNC(=N)N)NC(=O)[C@@H](NC(=O)[C@H](C)NC(=O)[C@H](CCC(=O)O)NC(=O)[C@H](CCCCN)NC(=O)[C@H](CCC(=O)O)NC(=O)[C@H](CCSC)NC(=O)[C@H](Cc1ccc(O)cc1)NC(=O)[C@H](CCC(=O)O)NC(=O)[C@H](CO)NC(=O)[C@H](Cc1ccc(O)cc1)NC(=O)[C@H](CC(=O)O)NC(=O)[C@H](CO)NC(=O)[C@@H](NC(=O)[C@H](Cc1ccccc1)NC(=O)[C@@H](NC(=O)CNC(=O)[C@H](CCC(=O)O)NC(=O)C(C)(C)NC(=O)[C@@H](N)Cc1ccc(O)cc1)[C@@H](C)O)[C@@H](C)O)C(C)C)C(=O)N[C@@H](C)C(=O)N[C@@H](Cc1c[nH]c2ccccc12)C(=O)N[C@@H](CC(C)C)C(=O)N[C@H](C(=O)N[C@@H](CCCCN)C(=O)NCC(N)=O)C(C)C [Compound 052-1] (H-Y[Aib]EGTFTSDYSEYMEKEAVREFIAWLVKG-NH2; N-terminus assumed)
pEC50 [1]: 8.60
pEC50 [2]: 9.24
GIP Receptor Relative Potency [2]: 36.8

CC[C@H](C)[C@H](NC(=O)[C@H](Cc1ccccc1)NC(=O)[C@H](CCC(=O)O)NC(=O)[C@H](CCCNC(=N)N)NC(=O)[C@@H](NC(=O)[C@H](C)NC(=O)[C@H](CCC(=O)O)NC(=O)[C@@H]1CCCCNC(=O)CC[C@H](NC(=O)[C@H](CO)NC(=O)[C@H](Cc2ccc(O)cc2)NC(=O)[C@H](CC(=O)O)NC(=O)[C@H](CO)NC(=O)[C@@H](NC(=O)[C@H](Cc2ccccc2)NC(=O)[C@@H](NC(=O)CNC(=O)[C@H](CCC(=O)O)NC(=O)C(C)(C)NC(=O)[C@@H](N)Cc2ccc(O)cc2)[C@@H](C)O)[C@@H](C)O)C(=O)N[C@@H](Cc2ccc(O)cc2)C(=O)N[C@@H](CCSC)C(=O)N[C@@H](CCC(=O)O)C(=O)N1)C(C)C)C(=O)N[C@@H](C)C(=O)N[C@@H](Cc1c[nH]c2ccccc12)C(=O)N[C@@H](CC(C)C)C(=O)N[C@H](C(=O)N[C@@H](CCCCN)C(=O)NCC(N)=O)C(C)C [Compound 052-2] (H-Y[Aib]EGTFTSDYSEYMEKEAVREFIAWLVKG-NH2; lactam 12-16)
GLP-1 Receptor Relative Potency [1]: 132.8
GIP Receptor Relative Potency [2]: 146.8

CC[C@H](C)[C@H](NC(=O)[C@H](Cc1ccccc1)NC(=O)[C@H](CCC(=O)O)NC(=O)[C@@H]1CCC(=O)NCCCC[C@H](NC(=O)[C@H](CCC(=O)O)NC(=O)[C@H](CCSC)NC(=O)[C@H](Cc2ccc(O)cc2)NC(=O)[C@@H](NC(=O)[C@H](CO)NC(=O)[C@H](Cc2ccc(O)cc2)NC(=O)[C@H](CC(=O)O)NC(=O)[C@H](CO)NC(=O)[C@@H](NC(=O)[C@H](Cc2ccccc2)NC(=O)[C@@H](NC(=O)CNC(=O)[C@H](CCC(=O)O)NC(=O)C(C)(C)NC(=O)[C@@H](N)Cc2ccc(O)cc2)[C@@H](C)O)[C@@H](C)O)[C@@H](C)CC)C(=O)N[C@@H](CCC(=O)O)C(=O)N[C@@H](C)C(=O)N[C@@H](C(C)C)C(=O)N1)C(=O)N[C@@H](C)C(=O)N[C@@H](Cc1c[nH]c2ccccc12)C(=O)N[C@@H](CC(C)C)C(=O)N[C@H](C(=O)N[C@@H](CCCCN)C(=O)NCC(N)=O)C(C)C [Compound 053-2] (H-Y[Aib]EGTFTSDYSIYMEKEAVEEFIAWLVKG-NH2; lactam 16-20; N-terminus assumed)
pEC50 [1]: 8.53
GLP-1 Receptor Relative Potency [1]: 37
GIP Receptor Relative Potency [2]: 35.4

CC[C@H](C)[C@H](NC(=O)[C@H](CO)NC(=O)[C@H](Cc1ccc(O)cc1)NC(=O)[C@H](CC(=O)O)NC(=O)[C@H](CO)NC(=O)[C@@H](NC(=O)[C@H](Cc1ccccc1)NC(=O)[C@@H](NC(=O)CNC(=O)[C@H](CCC(=O)O)NC(=O)C(C)(C)NC(=O)[C@@H](N)Cc1ccc(O)cc1)[C@@H](C)O)[C@@H](C)O)C(=O)N[C@@H](Cc1ccc(O)cc1)C(=O)N[C@@H](CCSC)C(=O)N[C@@H](CCC(=O)O)C(=O)N[C@@H](CCCCN)C(=O)N[C@@H](CCC(=O)O)C(=O)N[C@@H](C)C(=O)N[C@H](C(=O)N[C@@H](CCCNC(=N)N)C(=O)N[C@@H](CCC(=O)O)C(=O)N[C@@H](Cc1ccccc1)C(=O)N[C@H](C(=O)N[C@@H](CCC(=O)O)C(=O)N[C@@H](Cc1c[nH]c2ccccc12)C(=O)N[C@@H](CC(C)C)C(=O)N[C@H](C(=O)N[C@@H](CCCCN)C(=O)NCC(N)=O)C(C)C)[C@@H](C)CC)C(C)C [Compound 054-1] (H-Y[Aib]EGTFTSDYSIYMEKEAVREFIEWLVKG-NH2)
pEC50 [1]: 8.52
pEC50 [2]: 9.57
GIP Receptor Relative Potency [2]: 77.7

CC[C@H](C)[C@H](NC(=O)[C@H](Cc1ccccc1)NC(=O)[C@H](CCC(=O)O)NC(=O)[C@H](CCCNC(=N)N)NC(=O)[C@@H](NC(=O)[C@H](C)NC(=O)[C@H](CCC(=O)O)NC(=O)[C@H](CCCCN)NC(=O)[C@H](CCC(=O)O)NC(=O)[C@H](CCSC)NC(=O)[C@H](Cc1ccc(O)cc1)NC(=O)[C@@H](NC(=O)[C@H](CO)NC(=O)[C@H](Cc1ccc(O)cc1)NC(=O)[C@H](CC(=O)O)NC(=O)[C@H](CO)NC(=O)[C@@H](NC(=O)[C@H](Cc1ccccc1)NC(=O)[C@@H](NC(=O)CNC(=O)[C@H](CCC(=O)O)NC(=O)C(C)(C)NC(=O)[C@@H](N)Cc1ccc(O)cc1)[C@@H](C)O)[C@@H](C)O)[C@@H](C)CC)C(C)C)C(=O)N[C@@H](C)C(=O)N[C@@H](Cc1c[nH]c2ccccc12)C(=O)N[C@@H](CC(C)C)C(=O)N[C@H](C(=O)N[C@@H](CCCCN)C(=O)NCC(=O)N[C@@H](CCCCN)C(=O)N[C@@H](CCCCN)C(=O)N[C@@H](CCCCN)C(=O)N[C@@H](CCCCN)C(=O)N[C@@H](CCCCN)C(N)=O)C(C)C [Compound 060] (H-Y[Aib]EGTFTSDYSIYMEKEAVREFIAWLVKGKKKKK-NH2; N-terminus assumed)
GLP-1 Receptor Relative Potency [1]: 36.8
GIP Receptor Relative Potency [2]: 8.4

CC[C@H](C)[C@H](NC(=O)[C@H](Cc1ccccc1)NC(=O)[C@H](CCC(=O)O)NC(=O)[C@H](CCCNC(=N)N)NC(=O)[C@@H](NC(=O)[C@H](C)NC(=O)[C@H](CCC(=O)O)NC(=O)[C@H](CCCCN)NC(=O)[C@H](CCC(=O)O)NC(=O)[C@H](CCSC)NC(=O)[C@H](Cc1ccc(O)cc1)NC(=O)[C@@H](NC(=O)[C@H](CO)NC(=O)[C@H](Cc1ccc(O)cc1)NC(=O)[C@H](CC(=O)O)NC(=O)[C@H](CO)NC(=O)[C@@H](NC(=O)[C@H](Cc1ccccc1)NC(=O)[C@@H](NC(=O)CNC(=O)[C@H](CCC(=O)O)NC(=O)C(C)(C)NC(=O)[C@@H](N)Cc1ccc(O)cc1)[C@@H](C)O)[C@@H](C)O)[C@@H](C)CC)C(C)C)C(=O)N[C@@H](C)C(=O)N[C@@H](Cc1c[nH]c2ccccc12)C(=O)N[C@@H](CC(C)C)C(=O)N[C@H](C(=O)N[C@@H](CCCCN)C(=O)NCC(=O)NCC(=O)N1CCC[C@H]1C(=O)N[C@@H](CO)C(=O)N[C@@H](CO)C(=O)NCC(=O)N[C@@H](C)C(=O)N1CCC[C@H]1C(=O)N1CCC[C@H]1C(=O)N1CCC[C@H]1C(=O)N[C@@H](CO)C(=O)N[C@@H](CCCCN)C(N)=O)C(C)C [Compound 066]
pEC50 [1]: 8.60
GLP-1 Receptor Relative Potency [1]: 43.7
GIP Receptor Relative Potency [2]: 50

CCCCCCCCCCCCCCCC(=O)NCCCC[C@H](NC(=O)[C@@H](NC(=O)[C@H](C)NC(=O)[C@H](CCC(=O)O)NC(=O)[C@H](CCCCN)NC(=O)[C@H](CCC(=O)O)NC(=O)[C@H](CCSC)NC(=O)[C@H](Cc1ccc(O)cc1)NC(=O)[C@@H](NC(=O)[C@H](CO)NC(=O)[C@H](Cc1ccc(O)cc1)NC(=O)[C@H](CC(=O)O)NC(=O)[C@H](CO)NC(=O)[C@@H](NC(=O)[C@H](Cc1ccccc1)NC(=O)[C@@H](NC(=O)CNC(=O)[C@H](CCC(=O)O)NC(=O)C(C)(C)NC(=O)[C@@H](N)Cc1ccc(O)cc1)[C@@H](C)O)[C@@H](C)O)[C@@H](C)CC)C(C)C)C(=O)N[C@@H](CCC(=O)O)C(=O)N[C@@H](Cc1ccccc1)C(=O)N[C@H](C(=O)N[C@@H](C)C(=O)N[C@@H](Cc1c[nH]c2ccccc12)C(=O)N[C@@H](CC(C)C)C(=O)N[C@H](C(=O)N[C@@H](CCCCN)C(=O)NCC(N)=O)C(C)C)[C@@H](C)CC [Compound 067] (H-Y[Aib]EGTFTSDYSIYMEKEAVK(Palmitoyl)EFIAWLVKG-NH2)
GLP-1 Receptor Relative Potency [1]: 13.9
GIP Receptor Relative Potency [2]: 4.6

Tyr-Aib-Glu-Gly-Thr-Phe-Thr-Ser-Asp-Tyr-Ser-Ile-Tyr-Nle-Glu-Lys-Glu-Ala-Gln-Gln-Asp-Phe-Val-Asn-Trp-Leu-Leu-Ala-Gln(NH2) (Y[Aib]EGTFTSDYSIY[Nle]EKEAQQDFVNWLLAQ-NH2) [Analog 020]
GLP-1R activation (GLP-1 activity) against native GLP-1 [1]: less than 1%
